Laboratory results: BindingDB's records for patent US20250011311 (Astrazeneca, 2025)
pIC50: −log10 of the molar value.

Biological target: T1, 17-beta-hydroxysteroid dehydrogenase 13 (Homo sapiens, UniProt Q7Z5P4)
T1 sequence (Q7Z5P4 whole entry): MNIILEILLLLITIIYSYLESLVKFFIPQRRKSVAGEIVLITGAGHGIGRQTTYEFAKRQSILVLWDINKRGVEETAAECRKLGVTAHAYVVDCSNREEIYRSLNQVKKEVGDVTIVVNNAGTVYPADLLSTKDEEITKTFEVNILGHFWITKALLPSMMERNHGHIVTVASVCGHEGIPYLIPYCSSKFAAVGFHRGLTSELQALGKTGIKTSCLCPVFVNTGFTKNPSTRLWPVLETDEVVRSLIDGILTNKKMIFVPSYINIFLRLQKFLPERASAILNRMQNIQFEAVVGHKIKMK
Assay: In Vitro 17bHSD13 Enzyme Assay
Method: Final assay conditions were 80 nM of 17bHSD13, 0.5 mM of NAD, 20 μM Estradiol and various concentrations of compound in buffer (5 mM EDTA (TEKNOVA E0306), 0.01% DDM (AFFYMETRIX D310) in 50 mM Tris-Cl, pH 7.4). After 2.5 h the reaction were stopped by addition of 20 μl of 0.6% Formic acid (MERCK 5.33002) and samples were analyzed using LC-MS/MS.SCIEX LC-MS/MS system: Sample was injected with CTC analytical injector, SHIMATZU LC pumps LC20 and analyzed on the SCIEX API 5000 LCMSMS system with the following settings. Samples were chromatographed on a WATERS, […], C8, 3.5 μm, 2.1×50 mm) column at constant flow rate of 0.5 mL/min. The mobile phases consist of A (water with 0.2% formic acid) and B (acetonitrile with 0.2% formic acid). The LC gradient profile is as follows: 50% B during 0 to 0.5 min, a linear increase to 100% B during 0.5 to 1 min, hold at 100% B during 1 to 1.6 min then back to 50% B from 1.6 to 2 min. The run time was 2 min with retention times of approximately 0.8 and 1.07 min for Estradiol and Estrone, respectively. Detection was performed on a API 5000 LC/MS/MS system with a triple quadrupole mass spectrometer, a TURBO V ion source, in multiple reaction monitoring (MRM) mode at positive polarity with APCI probe. The MRM pairs were m/z 273.1 to m/z 107.0 and m/z 271.3 to 107.0. for Estradiol and Estrone, respectively.

For `CN(C(=O)c1noc(-c2cc(F)c(F)c(O)c2F)n1)c1cccc(C#N)c1` [US20250011311, Example 63], the pIC50 was 6.82.
